The text below walks through data of patent publication US20110288116A1, “IAP INHIBITORS” (TETRALOGIC PHARMACEUITCAL CORPORATION, priority 2008, published 2011).

The target in assay [1] is T1, XIAP BIR-3 (Homo sapiens, UniProt P98170).
T1 construct: 40 nM of the BIR3 for 15 min at RT
The experiment in a line: Fluorescence polarization binding to XIAP BIR-3 (competition with AbuRPF-K(5-Fam)-NH2). The conditions noted are these: XIAP BIR-3 (default where cell does not indicate otherwise); reported as range class. The protocol: (§1) The binding affinities of the compounds are reported as a Kd value. Briefly, various concentrations of test peptides were mixed with 5 nM of the fluorescently labeled peptide (i.e., a mutated N-terminal Smac peptide—AbuRPF-K(5-Fam)-NH2) and 40 nM of the BIR3 for 15 min at RT in […] of 0.1M Potassium Phosphate buffer, pH 7.5 containing […] bovine g-globulin. Following incubation, the polarization values (mP) were measured on a Victor2V (available from PerkinElmer Life Sciences) using a 485 nm excitation filter and a 520 nm emission filter. The reported Kd values are supplied as ranges (A=<0.1 μM, B=0.1 μM to C=>1 μM to 10 μM, D=>10 μM) and, unless otherwise indicated, are the Kd for XIAP BIR-3.
In general terms: Fluorescence polarisation rises when a labelled molecule tumbles more slowly, as on binding a larger partner.

In assay [2] the target is T2, cIAP-1 BIR-3 (Homo sapiens, UniProt Q13490).
T2 construct: "cIAP-1 BIR-3"
The experiment in a line: Fluorescence polarization binding to cIAP-1 BIR-3 (competition with AbuRPF-K(5-Fam)-NH2). The conditions noted are these: cells marked (cIAP-1): cIAP-1 BIR-3; reported as range class. The protocol:
as §1

As usually defined, the Kd is the free concentration of one partner at which half of the binding sites on the other are occupied at equilibrium, for simple one-to-one binding.

T1 sequence (P98170 241-356 limits assumed): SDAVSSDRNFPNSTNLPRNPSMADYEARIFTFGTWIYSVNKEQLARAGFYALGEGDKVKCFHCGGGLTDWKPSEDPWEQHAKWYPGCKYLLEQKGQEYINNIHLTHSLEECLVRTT
T2 sequence (Q13490 266-343 limits assumed): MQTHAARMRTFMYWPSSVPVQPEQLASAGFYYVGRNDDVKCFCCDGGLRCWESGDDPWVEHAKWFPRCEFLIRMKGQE

As to `CN[C@@H](C)C(=O)N[C@H](C(=O)N1CC[C@@H](O)[C@H]1Cc1c(-c2ccc(F)cc2)[nH]c2ccccc12)C(C)C` [BBB], the Kd in assay [1] is less than 100 nM.
Compound `CCN[C@@H](C)C(=O)N[C@H](C(=O)N1CCC[C@H]1Cc1cn(C)c2ncccc12)C(C)(C)C` [W] returned a dissociation constant (Kd) in assay [2] of less than 100 nM.
Same read-out and setting: the same measure for `CCN[C@@H](C)C(=O)N[C@H](C(=O)N1CC[C@H](O)[C@H]1Cc1c[nH]c2ncccc12)C(C)(C)C` [AA]: less than 100 nM; for `CCN[C@@H](C)C(=O)N[C@H](C(=O)N1CC[C@H](O)[C@H]1Cc1c[nH]c2ncccc12)C(C)C` [EE]: less than 100 nM.
Same read-out and setting: the same measure for `CC[C@H](NC)C(=O)N[C@H](C(=O)N1CC[C@@H](O)[C@H]1Cc1c(-c2ccc(F)cc2)[nH]c2ccccc12)[C@@H](C)OC` [MMM]: less than 100 nM.
`CCN[C@@H](C)C(=O)N[C@H](C(=O)N1CC[C@H](OC)[C@H]1Cc1c[nH]c2cc(F)ccc12)[C@@H](C)OC` [G′] had an equilibrium dissociation constant (Kd) in assay [1] greater than 10000 nM.
Turning to `CCN[C@@H](C)C(=O)N[C@H](C(=O)N1CC[C@H](O)[C@H]1Cc1cn(C)c2cc(F)ccc12)[C@@H](C)OC` [ZZ], in assay [1], the dissociation constant Kd is less than 100 nM.
Consider `CN[C@@H](C)C(=O)N[C@H](C(=O)N1CCC[C@H]1Cc1c[nH]c2ncccc12)C(C)(C)C` [E], for which the Kd in assay [1] was less than 100 nM.
The compound `CC[C@H](NC)C(=O)N[C@H](C(=O)N1CC[C@@H](O)[C@H]1Cc1c[nH]c2ccccc12)[C@@H](C)OC` [HH′] returned a Kd in assay [1] of less than 100 nM.
As for `CC[C@H](NC)C(=O)N[C@H](C(=O)N1CC[C@H](OC)[C@H]1Cc1c(Cl)[nH]c2cc(F)ccc12)[C@@H](C)O` [O′], the Kd in assay [1] is greater than 100 nM.
The same measure, in the same setting: the same measure for `CC[C@H](NC)C(=O)N[C@H](C(=O)N1CCC[C@H]1Cc1cn(C)c2ncccc12)[C@@H](C)OC` [T]: less than 100 nM; for `CC[C@H](NC)C(=O)N[C@H](C(=O)N1CC[C@H](OC)[C@H]1Cc1c(Cl)[nH]c2cc(F)ccc12)[C@@H](C)OC` [Q′]: greater than 100 nM.
Same read-out and setting: in the case of `CN[C@@H](C)C(=O)N[C@H](C(=O)N1CCC[C@H]1Cc1c[nH]c2c1ccc[n+]2[O-])[C@@H](C)OC` [P] it was less than 100 nM; in that of `CN[C@@H](C)C(=O)N[C@H](C(=O)N1CCC[C@H]1Cc1c[nH]c2c1ccc[n+]2[O-])C(C)(C)C` [S], less than 100 nM; in that of `CCN[C@@H](C)C(=O)N[C@H](C(=O)N1CCC[C@H]1Cc1c[nH]c2c1ccc[n+]2[O-])[C@@H](C)OC` [Q], greater than 100 nM.
Take `CN[C@@H](C)C(=O)N[C@H](C(=O)N1CC[C@H](OC)[C@H]1Cc1c(Cl)[nH]c2cc(F)ccc12)[C@@H](C)OC` [P′]: in assay [1], the dissociation constant (Kd) was less than 100 nM.
`CC[C@H](NC)C(=O)N[C@H](C(=O)N1C[C@@H](O)C[C@H]1Cc1c[nH]c2ncccc12)C1CCCCC1` [B] returned a Kd in assay [1] of less than 100 nM.
`CN[C@@H](C)C(=O)N[C@H](C(=O)N1CC[C@H](OC)[C@H]1Cc1c[nH]c2cc(F)ccc12)C(C)(C)C` [H′] returned a dissociation constant Kd in assay [1] greater than 10000 nM.
In turn, `CCN[C@@H](CC)C(=O)N[C@H](C(=O)N1CCC[C@H]1Cc1c[nH]c2c1ccc[n+]2[O-])[C@@H](C)OC` [Compound R] came in with a Kd in assay [1] greater than 100 nM.
On to `CN[C@@H](CO)C(=O)N[C@H](C(=O)N1CC[C@H](C)[C@H]1Cc1c[nH]c2cc(F)ccc12)[C@@H](C)O` [PP], for which the Kd in assay [1] is greater than 10000 nM.
The same measure, in the same setting: the same measure for `CC[C@H](NC)C(=O)N[C@H](C(=O)N1CC[C@H](O)[C@H]1Cc1c[nH]c2cc(F)ccc12)[C@@H](C)OC` [TT]: less than 100 nM; for `CN[C@@H](CO)C(=O)N[C@H](C(=O)N1CC[C@H](C)[C@H]1Cc1c[nH]c2cc(F)ccc12)[C@@H](C)OC` [LL]: greater than 10000 nM; for `CCNCC(=O)N[C@H](C(=O)N1CCC[C@H]1Cc1c[nH]c2ncccc12)[C@@H](C)OC` [I]: greater than 100 nM.
The compound `CCN[C@@H](C)C(=O)N[C@H](C(=O)N1CC[C@H](OC)[C@H]1Cc1c[nH]c2ncccc12)[C@@H](C)OC` [HH] registered a Kd in assay [1] of 1000 to 10000 nM.
The compound `CN[C@@H](C)C(=O)N[C@H](C(=O)N1CC[C@H](OC)[C@H]1Cc1c[nH]c2cc(F)ccc12)[C@@H](C)OC` [L′] gave a Kd in assay [1] greater than 10000 nM.
Turning to `CC[C@H](NC)C(=O)N[C@H](C(=O)N1CC[C@@H](O)[C@H]1Cc1c[nH]c2ccccc12)[C@@H](C)O` [EE′], in assay [1], the Kd is less than 100 nM.
The compound `CCN[C@@H](C)C(=O)N[C@H](C(=O)N1CC[C@H](OC)[C@H]1Cc1c[nH]c2ncccc12)C(C)(C)C` [GG] came in with a Kd in assay [1] of 1000 to 10000 nM.
`CN[C@@H](C)C(=O)N[C@H](C(=O)N1CC[C@H](OC)[C@H]1Cc1cn(C)c2cc(F)ccc12)[C@@H](C)OC` [B′] came in with an equilibrium dissociation constant (Kd) in assay [1] of less than 100 nM.
In turn, `CN[C@@H](C)C(=O)N[C@H](C(=O)N1CC[C@@H](O)[C@H]1Cc1c[nH]c2ccccc12)C1CCCCC1` [LL′, N-{1-Cyclohexyl-2-[3-hydroxy-2-(1H-indol-3-ylmethyl)-pyrrolidin-1-yl]-2-oxo-ethyl}-2-methylamino-propionamide] returned a Kd in assay [1] of less than 100 nM.
The compound `CN[C@@H](C)C(=O)N[C@H](C(=O)N1CC[C@H](O)[C@H]1Cc1c[nH]c2cc(F)ccc12)C(C)(C)C` [UU] showed a dissociation constant (Kd) in assay [1] of less than 100 nM.
In the case of `CN[C@@H](C)C(=O)N[C@H](C(=O)N1CCC[C@H]1Cc1cn(C)c2ncccc12)[C@@H](C)OC` [U], in assay [1], the Kd is less than 100 nM.
In turn, `CCN[C@@H](C)C(=O)N[C@H](C(=O)N1CCC[C@H]1Cc1c[nH]c2ncccc12)[C@@H](C)OC` [H] yielded a Kd in assay [1] of less than 100 nM.
As for `CC[C@H](NC)C(=O)N[C@H](C(=O)N1CC[C@H](C)[C@H]1Cc1c[nH]c2cc(F)ccc12)[C@@H](C)OC` [KK], the dissociation constant Kd in assay [1] is greater than 10000 nM.
`CN[C@@H](C)C(=O)N[C@H](C(=O)N1CC[C@H](OC)[C@H]1Cc1c(Cl)[nH]c2cc(F)ccc12)[C@@H](C)O` [N′]: the Kd in assay [1] was greater than 100 nM.
In assay [1], `CN[C@@H](C)C(=O)N[C@H](C(=O)N1CCC[C@H]1Cc1c(-c2ccccc2)n(C)c2ncccc12)[C@@H](C)OC` [Y] returned a Kd of less than 100 nM.
Same read-out and setting: in the case of `CCNCC(=O)N[C@H](C(=O)N1CCC[C@H]1Cc1c[nH]c2ncccc12)C(C)(C)C` [N] it was 1000 to 10000 nM; in that of `CN[C@@H](C)C(=O)N[C@H](C(=O)N1CC[C@H](C)[C@H]1Cc1c[nH]c2cc(F)ccc12)[C@@H](C)O` [NN], 1000 to 10000 nM; in that of `CN[C@@H](CO)C(=O)N[C@H](C(=O)N1CC[C@H](OC)[C@H]1Cc1c(Cl)[nH]c2cc(F)ccc12)[C@@H](C)OC` [S′], 1000 to 10000 nM.
Still for that read-out and setting: in the case of `CN[C@@H](C)C(=O)N[C@H](C(=O)N1CC[C@@H](O)[C@H]1Cc1c[nH]c2ccccc12)[C@@H](C)O` [FF′] it was less than 100 nM; in that of `CCN[C@@H](C)C(=O)N[C@H](C(=O)N1CC[C@H](OC)[C@H]1Cc1c(Cl)[nH]c2cc(F)ccc12)[C@@H](C)OC` [R′], greater than 100 nM.
`CC[C@H](NC)C(=O)N[C@H](C(=O)N1CC[C@H](O)[C@H]1Cc1c[nH]c2cc(F)ccc12)C(C)(C)C` [VV] showed a dissociation constant (Kd) in assay [1] of less than 100 nM.
Compound `CN[C@@H](C)C(=O)N[C@H](C(=O)N1CC[C@H](C)[C@H]1Cc1c[nH]c2cc(F)ccc12)[C@@H](C)OC` [JJ, N-{1-{1-2-(6-fluoro-1H-indol-3-ylmethyl)-3-methyl-pyrrolidine-1-carbonyl]-2-methoxy-propyl}-2-methylamino-propionamide] gave a dissociation constant (Kd) in assay [1] greater than 100 nM.
Still for that read-out and setting: the same measure for `CN[C@@H](C)C(=O)N[C@H](C(=O)N1CC[C@@H](O)[C@H]1Cc1c[nH]c2ccccc12)[C@@H](C)OC` [II′]: less than 100 nM.
In turn, `CCN[C@@H](C)C(=O)N[C@H](C(=O)N1CC[C@H](C)[C@H]1Cc1c[nH]c2cc(F)ccc12)[C@@H](C)O` [QQ] displayed a Kd in assay [1] greater than 10000 nM.
On the same count and under the same terms, the same measure for `CN[C@@H](C)C(=O)N[C@H](C(=O)N1CC[C@@H](O)[C@H]1Cc1c(-c2ccc(F)cc2)[nH]c2ccccc12)C1CCCCC1` [KKK]: greater than 100 nM.
`CN[C@@H](C)C(=O)N[C@H](C(=O)N1C[C@@H](O)C[C@H]1Cc1c[nH]c2ncccc12)[C@@H](C)OC` [Compound A, N-{1-[4-Hydroxy-2-(1H-pyrrolo[2,3-b]pyridin-3-ylmethyl)-pyrrolidine-1-carbonyl]-2-methoxy-propyl}-2-methylamino-propionamide]: in assay [1], the Kd was less than 100 nM.
In the case of `CN[C@@H](C)C(=O)N[C@H](C(=O)N1CCC[C@H]1Cc1c[nH]c2ncccc12)[C@@H](C)OC` [D], the Kd in assay [1] is less than 100 nM.
On to `CCN[C@@H](C)C(=O)N[C@H](C(=O)N1CC[C@H](OC)[C@H]1Cc1cn(C)c2cc(F)ccc12)[C@@H](C)OC` [A′], for which, in assay [1], the dissociation constant Kd was greater than 100 nM.
On the same count and under the same terms, in the case of `CCN[C@@H](C)C(=O)N[C@H](C(=O)N1CC[C@H](C)[C@H]1Cc1c[nH]c2cc(F)ccc12)[C@@H](C)OC` [MM] it was 1000 to 10000 nM; in that of `CCN[C@@H](C)C(=O)N[C@H](C(=O)N1CC[C@H](OC)[C@H]1Cc1c[nH]c2ncccc12)C(C)C` [II], 1000 to 10000 nM; in that of `CN[C@@H](C)C(=O)N[C@H](C(=O)N1CC[C@H](O)[C@H]1Cc1c[nH]c2cc(F)ccc12)[C@@H](C)OC` (relative stereo) [RR, trans-2R—[N-{1-[2-(6-Fluoro-1H-indol-3-ylmethyl)-3-hydroxy-pyrrolidine-1-carbonyl]-2-methoxy-propyl}]-2-methylamino-propionamide], less than 100 nM.
In assay [1], `CN[C@@H](CO)C(=O)N[C@H](C(=O)N1CCC[C@H]1Cc1c[nH]c2ncccc12)C(C)(C)C` [O] registered a Kd of less than 100 nM.
Same read-out and setting: in the case of `CCN[C@@H](CC)C(=O)N[C@H](C(=O)N1CCC[C@H]1Cc1c[nH]c2ncccc12)[C@@H](C)OC` [G] it was less than 100 nM; in that of `CN[C@@H](C)C(=O)N[C@H](C(=O)N1CC[C@H](O)[C@H]1Cc1cn(C)c2cc(F)ccc12)[C@@H](C)OC` [YY], less than 100 nM; in that of `CC[C@H](NC)C(=O)N[C@H](C(=O)N1CC[C@H](OC)[C@H]1Cc1c[nH]c2cc(F)ccc12)[C@@H](C)OC` [D′], greater than 10000 nM.
